Data: patent publication US7261906B2, “Anti-cancer therapy agent of arsenic hexoxide (As4O6) of a natural chemical substance and its pharmaceutical composition” (priority 1998, dated 2007)

How the values were obtained:
[1] = tested on: colon26-M3.1 carcinoma cells; assay: Inhibitory effect of intravenously-administered HD-2 on cancer metastasis (lung); format: in vivo, mice
Procedure: B16-BL6 melanoma cells or colon26-M3.1 carcinoma cells were inoculated into mice and number of metastatic tumor masses appearing in lungs was counted. […] The peak activity was observed a: 1-mg dose with very high anticancer efficacy (86%). […] This indicated oral administration of HD-2 was quite effective for treatment of established cancer.
In this experiment, HD-2 was administered intravenously with dosage less than 500 mg/kg body weight per day.

[2] = tested on: 3T3-fibroblast cells; assay: Cytotoxicity in 3T3-fibroblast cells, time course (XTT method); format: cell-based, murine
Procedure: Cloned tumor cells of P388 leukemia, L1210 leukemia, L5178Y lymphoma, Colon26-M3.1 carcinoma, and B16-BL6 melanoma, from mice, and K562 leukemia, liver carcinoma HEP-G2, Hs578T breast cancer, AN-3-CA adenocarcinoma, DLD colon carcinoma, and HeLa epitheloid carcinoma, from human beings, were cultured in EMM, DMEM, or RMPI-1640 culture media containing 7.5% fetal bovine serum (FBS), as described in ATCC manual. […] Tumor cells in test wells were incubated in 5% CO2 incubator at 37° C. for 2 days.
For further study of the cytotoxicity of each substance on cloned tumor cells, 3T3-fibroblast cells were cultured in test wells as described in experiment 1.

[3] = 1 μg intravenous administration +1
[4] = 10 μg intravenous administration +1
[5] = 10 μg intravenous administration +7
[6] = 100 μg intravenous administration +1

In the case of N.N.[Cl][Pt][Cl] [cisplatin, reference compound], the inhibitory rate [1, 3] is reported as 34.2%, the “number of metastatic mass, mean ± SD” value [1, 3] is reported as 102 ± 28 and the inhibitory rate [1, 4] is reported as 87.1%. For the same compound, the “number of metastatic mass, mean ± SD” value [1, 4] was 20 ± 13, the inhibitory rate [1, 5] was 50.0% and the “number of metastatic mass, mean ± SD” value [1, 5] was 77 ± 12. The inhibitory rate [1, 6] was 63.2%, the “number of metastatic mass, mean ± SD” value [1, 6] was 57 ± 22 and the “morphological observation of cells” value ([2]; 3T3, 34 hours of treatment) was “partial necrosis of tumor cells or slowing of tumor growth”. For the same compound, the tumor growth ([2]; 3T3, after 24 hours of administration) was “partial inhibition of tumor growth”.
